pIC50: −log10 of the molar value. Values belong to the compound of their own block, whether it stands above or below them.
Experiments:
[1] = target: Serine/threonine-protein kinase TAO3 (Homo sapiens, UniProt Q9H2K8); assay: TAO3(TAO3LGY1) Takeda global kinase panel
[2] = target: Cyclin-dependent kinase 12 (Homo sapiens, UniProt Q9NYV4); assay: CRK7(CD12PHS1) Takeda global kinase panel
[3] = target: Mitotic checkpoint serine/threonine-protein kinase BUB1 (Homo sapiens, UniProt O43683); assay: Bub1(BUB1LGRL) Takeda global kinase panel
[4] = target: LIM domain kinase 1 (Homo sapiens, UniProt P53667); assay: LIMK1(LIM1LGY1) Takeda global kinase panel
[5] = target: L-type calcium channel, dihydropyridine site (Cav1.2 alpha-1C) (Homo sapiens, UniProt Q13936); assay: Inhibition of Calcium Channel L-Type, Dihydropyridine at 10 µM in the Eurofins-Panlabs radioligand binding assay (Eurofins_assay_214600); design: ligand concentration 0.1 nM, non-specific ligand with concentration 1 µM Nitrendipine, incubation time 90 min, incubation temperature 25 °C; conditions: Wistar, rat, cerebral cortices of rats, probe [3H] Nitrendipine; compound concentration 10 uM; target entry is the homologue from another species
[6] = target: Platelet-activating factor receptor (Homo sapiens) (UniProt P25105); assay: Platelet Activating Factor (PAF) Eurofins-Panlabs radioligand binding assay; design: ligand concentration 1 nM; conditions: Compound concentration 10.0 uM
[7] = target: Serine/threonine-protein kinase ULK2 (Homo sapiens, UniProt Q8IYT8); assay: ULK2(ULK2LGY1) Takeda global kinase panel
[8] = target: Homeodomain-interacting protein kinase 1 (Homo sapiens, UniProt Q86Z02); assay: HIPK1(HIP1LGF1) Takeda global kinase panel
[9] = target: Dual specificity mitogen-activated protein kinase kinase 6 (Homo sapiens, UniProt P52564); assay: MKK6 [MAP2K6(M2K6LGF1)] Takeda global kinase panel
[10] = target: Fibroblast growth factor receptor 4 (Homo sapiens, UniProt P22455); assay: FGFR4(FGF4LGF1) Takeda global kinase panel
Fibroblast growth factor receptor 4, sequence (P22455 whole entry): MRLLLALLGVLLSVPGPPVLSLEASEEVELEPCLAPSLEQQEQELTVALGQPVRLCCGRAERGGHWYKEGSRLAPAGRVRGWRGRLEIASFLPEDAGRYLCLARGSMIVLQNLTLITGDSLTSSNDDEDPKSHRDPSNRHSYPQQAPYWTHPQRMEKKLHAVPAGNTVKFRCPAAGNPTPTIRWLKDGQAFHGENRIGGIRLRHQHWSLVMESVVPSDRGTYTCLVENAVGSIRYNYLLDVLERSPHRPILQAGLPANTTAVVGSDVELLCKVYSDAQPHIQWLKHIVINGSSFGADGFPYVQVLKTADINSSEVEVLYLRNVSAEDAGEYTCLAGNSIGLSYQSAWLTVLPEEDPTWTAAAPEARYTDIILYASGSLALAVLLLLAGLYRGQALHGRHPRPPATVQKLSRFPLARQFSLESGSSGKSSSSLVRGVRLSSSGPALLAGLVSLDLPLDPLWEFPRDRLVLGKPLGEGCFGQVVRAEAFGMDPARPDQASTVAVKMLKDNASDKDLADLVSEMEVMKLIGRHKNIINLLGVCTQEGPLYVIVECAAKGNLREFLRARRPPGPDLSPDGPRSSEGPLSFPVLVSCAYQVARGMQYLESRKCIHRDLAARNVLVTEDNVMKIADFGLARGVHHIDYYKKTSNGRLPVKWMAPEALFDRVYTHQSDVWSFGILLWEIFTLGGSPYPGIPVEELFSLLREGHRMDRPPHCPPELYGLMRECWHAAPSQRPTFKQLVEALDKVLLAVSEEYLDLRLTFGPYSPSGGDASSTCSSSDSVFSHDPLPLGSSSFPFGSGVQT

[11] = target: Muscle, skeletal receptor tyrosine-protein kinase (Homo sapiens, UniProt O15146); assay: MUSK(MUSKLGY1) Takeda global kinase panel
[12] = target: Myosin light chain kinase family member 4 (Homo sapiens, UniProt Q86YV6); assay: SgK085(SG85LGY1) Takeda global kinase panel
Myosin light chain kinase family member 4, sequence (Q86YV6 whole entry): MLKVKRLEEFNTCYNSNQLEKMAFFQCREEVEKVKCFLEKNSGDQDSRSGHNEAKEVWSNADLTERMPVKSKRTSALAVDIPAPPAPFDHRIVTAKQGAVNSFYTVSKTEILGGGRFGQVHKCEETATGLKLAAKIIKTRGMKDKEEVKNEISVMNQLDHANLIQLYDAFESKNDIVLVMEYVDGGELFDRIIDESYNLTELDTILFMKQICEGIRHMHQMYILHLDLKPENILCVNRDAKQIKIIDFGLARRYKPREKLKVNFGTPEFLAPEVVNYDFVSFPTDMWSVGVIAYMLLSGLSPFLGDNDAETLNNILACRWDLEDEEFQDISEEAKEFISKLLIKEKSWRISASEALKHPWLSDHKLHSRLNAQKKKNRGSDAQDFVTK

[13] = target: SRSF protein kinase 3 (Homo sapiens, UniProt Q9UPE1); assay: MSSK1(SRP3MHRL) Takeda global kinase panel
[14] = target: Cyclin-dependent kinase 17 (Homo sapiens, UniProt Q00537); assay: PCTAIRE2(CD17SGS1) Takeda global kinase panel
[15] = target: Mitogen-activated protein kinase kinase kinase 14 (Homo sapiens, UniProt Q99558); assay: NIK(M314LGP1) Takeda global kinase panel
[16] = target: G protein-coupled receptor kinase 6 (Homo sapiens, UniProt P43250); assay: GRK6(GRK6LGP1) Takeda global kinase panel
[17] = target: LIM domain kinase 2 (Homo sapiens, UniProt P53671); assay: LIMK2(LIM2LGV1) Takeda global kinase panel
[18] = target: Tyrosine-protein kinase JAK3 (Homo sapiens, UniProt P52333); assay: JAK3(JAK3LGRG) Takeda global kinase panel
[19] = target: Receptor-interacting serine/threonine-protein kinase 3 (Homo sapiens, UniProt Q9Y572); assay: RIPK3(RIP3IGRI) Takeda global kinase panel
Receptor-interacting serine/threonine-protein kinase 3, sequence (Q9Y572 whole entry): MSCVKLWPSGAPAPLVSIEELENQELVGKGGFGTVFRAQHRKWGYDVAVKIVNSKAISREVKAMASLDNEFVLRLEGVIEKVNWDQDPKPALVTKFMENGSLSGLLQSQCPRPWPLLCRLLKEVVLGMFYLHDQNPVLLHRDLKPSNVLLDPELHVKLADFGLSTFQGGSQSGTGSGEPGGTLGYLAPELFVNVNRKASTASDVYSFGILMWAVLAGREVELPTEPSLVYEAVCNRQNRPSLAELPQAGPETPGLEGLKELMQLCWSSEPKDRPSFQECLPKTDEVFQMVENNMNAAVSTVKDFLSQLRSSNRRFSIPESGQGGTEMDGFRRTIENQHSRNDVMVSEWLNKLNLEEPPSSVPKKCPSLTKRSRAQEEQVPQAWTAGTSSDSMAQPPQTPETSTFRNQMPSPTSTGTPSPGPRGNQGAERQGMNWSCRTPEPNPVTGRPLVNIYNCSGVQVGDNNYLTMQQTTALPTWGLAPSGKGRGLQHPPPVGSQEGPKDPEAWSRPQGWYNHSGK

[20] = target: Ephrin type-B receptor 1 (Homo sapiens, UniProt P54762); assay: EphB1(EPB1LGY1) Takeda global kinase panel
[21] = target: Platelet-derived growth factor receptor beta (Homo sapiens, UniProt P09619); assay: PDGFRbeta(PDGBIHC1) Takeda global kinase panel
[22] = target: eIF-2-alpha kinase GCN2 (Homo sapiens, UniProt Q9P2K8); assay: GCN2(EIK4PHK1) Takeda global kinase panel
[23] = target: Cyclin-dependent kinase 1 (Homo sapiens, UniProt P06493); assay: CDC2 [CDK1(CDK1CGS1)] Takeda global kinase panel
[24] = target: G protein-coupled receptor kinase 3 (Homo sapiens, UniProt P35626); assay: BARK2 [GRK3(ADR2LGG5)] Takeda global kinase panel
[25] = target: STE20-related kinase adapter protein alpha (Homo sapiens, UniProt Q7RTN6); assay: STLK5(STRAPHD1) Takeda global kinase panel
[26] = target: Ephrin type-B receptor 3 (Homo sapiens, UniProt P54753); assay: EphB3(EPB3LGRJ) Takeda global kinase panel
Ephrin type-B receptor 3, sequence (P54753 whole entry): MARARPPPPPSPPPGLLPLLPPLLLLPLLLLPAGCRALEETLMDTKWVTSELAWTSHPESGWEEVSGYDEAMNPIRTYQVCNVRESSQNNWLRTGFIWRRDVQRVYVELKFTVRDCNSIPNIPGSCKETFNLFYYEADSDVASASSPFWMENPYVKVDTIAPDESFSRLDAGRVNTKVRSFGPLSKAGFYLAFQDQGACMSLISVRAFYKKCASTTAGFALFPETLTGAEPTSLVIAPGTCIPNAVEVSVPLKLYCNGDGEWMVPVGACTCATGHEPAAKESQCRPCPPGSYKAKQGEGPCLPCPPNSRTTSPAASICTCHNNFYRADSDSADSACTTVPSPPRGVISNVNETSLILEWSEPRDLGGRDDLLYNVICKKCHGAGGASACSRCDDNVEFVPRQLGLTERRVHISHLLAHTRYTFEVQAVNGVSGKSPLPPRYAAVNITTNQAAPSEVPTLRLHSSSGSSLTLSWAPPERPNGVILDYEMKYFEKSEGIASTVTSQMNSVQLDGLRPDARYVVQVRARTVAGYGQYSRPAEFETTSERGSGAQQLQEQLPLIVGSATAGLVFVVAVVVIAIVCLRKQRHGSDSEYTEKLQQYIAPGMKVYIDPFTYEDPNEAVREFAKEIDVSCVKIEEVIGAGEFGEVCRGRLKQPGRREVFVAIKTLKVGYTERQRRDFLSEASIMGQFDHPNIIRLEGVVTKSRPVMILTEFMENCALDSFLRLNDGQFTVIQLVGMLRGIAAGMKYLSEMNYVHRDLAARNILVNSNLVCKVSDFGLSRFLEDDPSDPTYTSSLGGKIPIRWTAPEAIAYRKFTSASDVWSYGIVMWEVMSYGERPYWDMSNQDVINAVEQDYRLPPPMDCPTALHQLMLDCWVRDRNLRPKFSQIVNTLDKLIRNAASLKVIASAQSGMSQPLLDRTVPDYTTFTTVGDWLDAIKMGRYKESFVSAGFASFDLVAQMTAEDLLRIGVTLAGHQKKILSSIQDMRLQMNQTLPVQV

[27] = target: Mitogen-activated protein kinase kinase kinase 9 (Homo sapiens, UniProt P80192); assay: MLK1(M3K9LGF1) Takeda global kinase panel
[28] = target: Sodium-dependent serotonin transporter (Homo sapiens) (UniProt P31645); conditions: Compound concentration 10.0 uM
[29] = target: Cyclin-dependent kinase 9 (Homo sapiens, UniProt P50750); assay: CDK9(CDK9CGS1) Takeda global kinase panel
[30] = target: Citron Rho-interacting kinase (Homo sapiens, UniProt O14578); assay: CRIK(CIT1LGY1) Takeda global kinase panel
Citron Rho-interacting kinase, sequence (O14578 whole entry): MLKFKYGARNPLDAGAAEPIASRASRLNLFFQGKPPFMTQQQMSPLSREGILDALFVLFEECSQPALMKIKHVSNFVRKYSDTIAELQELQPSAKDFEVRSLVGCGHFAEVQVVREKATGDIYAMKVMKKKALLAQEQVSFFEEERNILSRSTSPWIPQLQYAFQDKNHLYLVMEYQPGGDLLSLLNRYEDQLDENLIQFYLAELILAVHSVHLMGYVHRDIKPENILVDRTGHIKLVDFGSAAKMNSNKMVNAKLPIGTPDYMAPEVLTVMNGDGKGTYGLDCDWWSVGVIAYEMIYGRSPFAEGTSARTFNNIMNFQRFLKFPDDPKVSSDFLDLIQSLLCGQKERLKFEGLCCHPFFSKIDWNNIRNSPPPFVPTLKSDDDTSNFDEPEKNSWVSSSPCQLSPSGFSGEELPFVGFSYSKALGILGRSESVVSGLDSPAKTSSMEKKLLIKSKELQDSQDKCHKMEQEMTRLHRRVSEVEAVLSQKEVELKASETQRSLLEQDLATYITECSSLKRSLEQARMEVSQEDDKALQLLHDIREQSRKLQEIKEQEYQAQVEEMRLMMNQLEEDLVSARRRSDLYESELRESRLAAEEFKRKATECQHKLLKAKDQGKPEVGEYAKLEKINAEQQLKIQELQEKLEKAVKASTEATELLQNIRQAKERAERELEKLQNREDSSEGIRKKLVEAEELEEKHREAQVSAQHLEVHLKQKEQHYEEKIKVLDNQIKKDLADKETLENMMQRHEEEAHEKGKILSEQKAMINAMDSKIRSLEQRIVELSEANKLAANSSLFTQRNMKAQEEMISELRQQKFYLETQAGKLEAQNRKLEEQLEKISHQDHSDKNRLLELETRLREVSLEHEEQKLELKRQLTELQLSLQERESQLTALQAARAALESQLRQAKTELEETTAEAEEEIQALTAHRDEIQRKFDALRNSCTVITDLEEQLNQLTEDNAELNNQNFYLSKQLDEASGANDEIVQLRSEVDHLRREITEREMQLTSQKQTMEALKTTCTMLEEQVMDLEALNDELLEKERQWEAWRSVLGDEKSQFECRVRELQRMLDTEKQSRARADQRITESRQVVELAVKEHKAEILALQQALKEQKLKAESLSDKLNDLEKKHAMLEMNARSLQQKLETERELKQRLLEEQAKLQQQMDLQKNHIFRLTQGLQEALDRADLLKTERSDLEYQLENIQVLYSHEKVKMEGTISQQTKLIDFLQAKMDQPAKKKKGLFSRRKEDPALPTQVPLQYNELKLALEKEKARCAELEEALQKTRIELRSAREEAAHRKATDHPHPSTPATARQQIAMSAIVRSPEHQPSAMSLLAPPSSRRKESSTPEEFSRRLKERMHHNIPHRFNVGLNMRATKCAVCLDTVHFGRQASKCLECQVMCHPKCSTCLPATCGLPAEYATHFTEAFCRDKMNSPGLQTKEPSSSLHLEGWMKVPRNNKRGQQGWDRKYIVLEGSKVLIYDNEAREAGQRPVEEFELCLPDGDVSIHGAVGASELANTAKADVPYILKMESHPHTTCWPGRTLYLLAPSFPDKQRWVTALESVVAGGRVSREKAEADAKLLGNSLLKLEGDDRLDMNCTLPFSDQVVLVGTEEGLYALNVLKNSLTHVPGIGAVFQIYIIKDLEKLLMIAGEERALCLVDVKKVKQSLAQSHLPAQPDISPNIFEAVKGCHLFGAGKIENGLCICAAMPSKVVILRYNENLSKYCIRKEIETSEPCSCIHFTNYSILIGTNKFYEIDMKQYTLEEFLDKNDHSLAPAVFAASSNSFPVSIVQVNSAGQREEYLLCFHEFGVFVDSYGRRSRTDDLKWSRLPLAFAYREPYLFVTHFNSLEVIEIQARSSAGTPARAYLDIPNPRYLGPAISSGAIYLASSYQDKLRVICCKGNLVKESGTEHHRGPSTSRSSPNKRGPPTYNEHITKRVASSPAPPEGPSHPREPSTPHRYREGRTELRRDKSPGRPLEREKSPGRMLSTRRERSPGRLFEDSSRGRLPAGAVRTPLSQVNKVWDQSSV

[31] = target: 5-hydroxytryptamine receptor 2B (Homo sapiens) (UniProt P41595); conditions: Compound concentration 10.0 uM
[32] = target: Eukaryotic translation initiation factor 2-alpha kinase 1 (Homo sapiens, UniProt Q9BQI3); assay: HRI(EIK1CGQ1) Takeda global kinase panel
[33] = target: Peripheral plasma membrane protein CASK (Homo sapiens, UniProt O14936); assay: CASK(CASKLGY1) Takeda global kinase panel
[34] = target: Alpha-1B adrenergic receptor (Homo sapiens) (UniProt P35368); assay: Adrenergic alpha1B Eurofins-Panlabs radioligand binding assay; design: ligand concentration 0.2 nM; conditions: Compound concentration 10.0 uM
[35] = target: Tyrosine-protein kinase ABL2 (Homo sapiens, UniProt P42684); assay: Arg(ABL2LGF1) Takeda global kinase panel
[36] = target: Dual specificity tyrosine-phosphorylation-regulated kinase 2 (Homo sapiens, UniProt Q92630); assay: DYRK2(DYR2LGY1) Takeda global kinase panel
[37] = target: D(2) dopamine receptor (Homo sapiens) (UniProt P14416); conditions: Compound concentration 10.0 uM
[38] = target: Serine/threonine-protein kinase VRK2 (Homo sapiens, UniProt Q86Y07); assay: VRK2(VRK2LGRI) Takeda global kinase panel
[39] = target: Rhodopsin kinase GRK1 (Homo sapiens, UniProt Q15835); assay: RHODK [GRK1(GRK1LGA1)] Takeda global kinase panel
[40] = target: Beta-adrenergic receptor kinase 1 (Homo sapiens, UniProt P25098); assay: BARK1 [GRK2(ADR1LGG5)] Takeda global kinase panel
[41] = target: Calcium/calmodulin-dependent protein kinase type 1B (Homo sapiens, UniProt Q6P2M8); assay: CaMK1beta(PNCKLGRI) Takeda global kinase panel
Calcium/calmodulin-dependent protein kinase type 1B, sequence (Q6P2M8 whole entry): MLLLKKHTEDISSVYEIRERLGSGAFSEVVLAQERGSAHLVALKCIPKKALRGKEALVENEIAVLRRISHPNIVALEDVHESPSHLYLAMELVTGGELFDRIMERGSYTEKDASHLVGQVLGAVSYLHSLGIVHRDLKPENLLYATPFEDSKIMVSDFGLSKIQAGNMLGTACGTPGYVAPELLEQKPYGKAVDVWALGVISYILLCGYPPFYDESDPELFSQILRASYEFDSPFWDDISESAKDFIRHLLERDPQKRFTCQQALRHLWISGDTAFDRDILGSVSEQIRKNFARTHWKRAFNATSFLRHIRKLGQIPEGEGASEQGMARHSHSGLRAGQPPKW

[42] = target: Serine/threonine-protein kinase RIO2 (Homo sapiens, UniProt Q9BVS4); assay: RIOK2(RIO2LGF1) Takeda global kinase panel
[43] = target: Tyrosine-protein kinase Srms (Homo sapiens, UniProt Q9H3Y6); assay: Srm(SRMSLGY1) Takeda global kinase panel
[44] = target: Tyrosine-protein kinase Fes/Fps (Homo sapiens, UniProt P07332); assay: Fes(FES1LHY1) Takeda global kinase panel

Compound: CN1C(=O)[C@@H](N2CCc3cn(Cc4ccccc4)nc3C2=O)COc2ccccc21 [TP-030-1]
pIC50 [1]: 6.00
pIC50 [2]: 6.00
pIC50 [3]: 6.00
pIC50 [4]: 6.00
inhibition at 90 min, 10 µM [5]: -18% (not active)
inhibition [6]: 2%
pIC50 [7]: 6.00
pIC50 [8]: 6.00
pIC50 [9]: 6.00
pIC50 [10]: 6.00
pIC50 [11]: 6.00
pIC50 [12]: 6.00
pIC50 [13]: 6.00
pIC50 [14]: 6.00
pIC50 [15]: 6.00
pIC50 [16]: 6.00
pIC50 [17]: 6.00
pIC50 [18]: 6.00
pIC50 [19]: 6.00
pIC50 [20]: 6.00
pIC50 [21]: 6.00
pIC50 [22]: 6.00
pIC50 [23]: 6.00
pIC50 [24]: 6.00
pIC50 [25]: 6.00
pIC50 [26]: 6.00
pIC50 [27]: 6.00
inhibition [28]: -4%
pIC50 [29]: 6.00
pIC50 [30]: 6.00
inhibition [31]: 6%
pIC50 [32]: 6.00
pIC50 [33]: 6.00
inhibition [34]: 2%
pIC50 [35]: 6.00
pIC50 [36]: 6.00
inhibition [37]: 7%
pIC50 [38]: 6.00
pIC50 [39]: 6.00
pIC50 [40]: 6.00
pIC50 [41]: 6.00
pIC50 [42]: 6.00
pIC50 [43]: 6.00
pIC50 [44]: 6.00

pIC50 [1]: 6.00
pIC50 [2]: 6.00
pIC50 [3]: 6.00
pIC50 [4]: 6.00
pIC50 [7]: 6.00
pIC50 [8]: 6.00
pIC50 [9]: 6.00
pIC50 [10]: 6.00
pIC50 [11]: 6.00
pIC50 [12]: 6.00
pIC50 [13]: 6.00
pIC50 [14]: 6.00
pIC50 [15]: 6.00
pIC50 [16]: 6.00
pIC50 [17]: 6.00
pIC50 [18]: 6.00
pIC50 [19]: 6.00
pIC50 [20]: 6.00
pIC50 [21]: 6.00
pIC50 [22]: 6.00
pIC50 [23]: 6.00
pIC50 [24]: 6.00
pIC50 [25]: 6.00
pIC50 [26]: 6.00
pIC50 [27]: 6.00
inhibition [28]: 5%
pIC50 [29]: 6.00
pIC50 [30]: 6.00
inhibition [31]: -2%
pIC50 [32]: 6.00
pIC50 [33]: 6.00
inhibition [34]: 1%
pIC50 [35]: 6.00
pIC50 [36]: 6.00
inhibition [37]: 2%
pIC50 [38]: 6.00
pIC50 [39]: 6.00
pIC50 [40]: 6.00
pIC50 [41]: 6.00
pIC50 [42]: 6.00
pIC50 [43]: 6.00
pIC50 [44]: 6.00
Compound: CN1C(=O)[C@@H](N2CCc3cn(CC4CCS(=O)(=O)CC4)nc3C2=O)COc2ccccc21 [TP-030n]
inhibition at 90 min, 10 µM [5]: -6% (not active)
